US20230202989A1, “COMPOUNDS” (JANSSEN PHARMACEUTICA NV, priority 2020, published 2023)
Like-named read-outs stand apart in the source and are kept apart here.

Key:
TNF = test: PBMC assay: TNF cytokine levels after LPS stimulation (MSD); type: cell-based; conditions: human PBMCs, 100 ng/ml LPS for 6 hrs
Outline: (§1)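 TNF (EC50) and IL-1β (IC50) were quantified by MSD in supernatants after 6 h stimulation with 100 ng/ml LPS. Thawed healthy-donor PBMCs, 7.5×10^4 per well, were exposed to 1:3 compound dilutions for 30 min beforehand at 37 °C.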

IL-1β = test: PBMC assay: inhibition of IL-1β release after LPS stimulation (MSD); type: cell-based; conditions: human PBMCs, read-out: IL1β IC50
Outline: as §1

[1] = Homo sapiens, PBMC, 6 h, 100 ng/ml LPS for 6 hrs, MSD, 96 well plates

SMILES	EC50 (TNF; Homo sapiens, PBMC, 6 h) [nM]	IC50 (IL-1β; [1]) [nM]	EC50 (TNF) [nM]	IC50 (IL-1β; 100 ng/ml LPS for 6 hrs, MSD, 96 well plates) [nM]	IC50 (IL-1β; Homo sapiens, PBMC, LPS stimulation, 384 well plate) [nM]
O=C(Cn1nc(C2CC2)c2cc(C(F)(F)F)ccc2c1=O)Nc1ccc2nncn2n1 [Final Cpd X34]	> 20000	255			
CC(O)c1nn(CC(=O)N[C@H]2C[C@@](C)(O)C2)c(=O)c2ccc(Br)cc12 (stereo partly shown) [X-1080]	> 20000	502			
CC(C)c1nn(CC(=O)N[C@H]2C[C@@](C)(O)C2)c(=O)c2ccc(OC(F)(F)F)cc12 [X-1041]	> 20000	1330			
CC(C)c1nn(CC(=O)Nc2ccc3c(c2)CCN3C(C)C)c(=O)c2ccc(C(F)(F)F)cc12 [Final Cpd X173]	> 20000	> 20000			
CC(O)c1nn(CC(=O)Nc2ccc3nncn3c2)c(=O)c2ccc(C(F)(F)F)cc12 (stereo not shown) [Final Cpd X66]	> 20000	670			
CC(C)c1nn(CC(=O)N[C@H]2C[C@](O)(C(F)(F)F)C2)c(=O)c2ccc(C(F)(F)F)cc12 [Final Cpd X65]			> 20000	668	
CC(C)c1nn(CC(=O)Nc2cn3cnnc3cn2)c(=O)c2ccc(C(F)(F)F)cc12 [Final Cpd X14, N-([1,2,4]triazolo[4,3-a]pyrazin-6-yl)-2-(4-isopropyl-1-oxo-6-(trifluoromethyl)phthalazin-2(1H)-yl)acetamide]	> 20000	116			
CC(C)c1nn(CC(=O)N[C@@H]2CC[C@](C)(O)C2)c(=O)c2ccc(C(F)(F)F)cc12 [Final Cpd X100]	> 20000	1260			
CC(C)c1nn(CC(=O)Nc2ccc3nc(C(F)F)cn3n2)c(=O)c2ccc(C(F)(F)F)cc12 [Final Cpd X118]	> 20000	2130			
Cc1cc(NC(=O)Cn2nc(C(C)C)c3cc(C(F)(F)F)ccc3c2=O)cn2cnnc12 [Final Cpd X28, 2-(4-isopropyl-1-oxo-6-(trifluoromethyl)phthalazin-2(1H)-yl)-N-(8-methyl-[1,2,4]triazolo[4,3-a]pyridin-6-yl)acetamide]	> 20000	193			
O=C(Cn1nc(C2CC2)c2cc(Cl)ccc2c1=O)Nc1ccc2nncn2c1 [X-1071]	> 20000	398			
CC(C)c1nn(CC(=O)N[C@H]2CC[C@@H]2O)c(=O)c2ccc(C(F)(F)F)cc12 [Final Cpd X56]	> 20000	493			
CC(C)c1nn(CC(=O)Nc2nc(Cl)c3ncn(C)c3n2)c(=O)c2ccc(C(F)(F)F)cc12 [Final Cpd X96]	> 20000	1110			
C[C@]1(O)C[C@@H](NC(=O)Cn2nc(C3CC3)c3cc(Cl)ccc3c2=O)C1 [X-1070]	> 20000	406			
CC(C)c1nn(CC(=O)NC2CC(F)(F)C2)c(=O)c2ccc(C(F)(F)F)cc12 [Final Cpd X156]	> 20000	8770			
CC(C)c1ccc2c(=O)n(CC(=O)Nc3ccncn3)nc(C(C)C)c2c1 [Final Cpd 35]	> 10000	170			
CC(C)c1nn(CC(=O)Nc2ccc3ncn(C)c3n2)c(=O)c2ccc(C(F)(F)F)cc12 [Final Cpd X47, 2-(4-isopropyl-1-oxo-6-(trifluoromethyl)phthalazin-2(1H)-yl)-N-(3-methyl-3H-imidazo[4,5-b]pyridin-5-yl)acetamide]	> 20000	394			
CCc1nn(CC(=O)N[C@H]2C[C@@](C)(O)C2)c(=O)c2ccc(N(C)C)cc12 [X-1037]	> 20000	2340			
CC(C)c1nn(CC(=O)Nc2ccc3nncn3c2)c(=O)c2ccc(C3CCC3)cc12 [X-1078]	> 20000	1310			
CC(C)c1nn(CC(=O)Nc2ccc3cnn(C(F)F)c3c2)c(=O)c2ccc(Br)cc12 [X-1034]	> 20000	3010			
Cc1cnc2ccc(NC(=O)Cn3nc(C(C)C)c4cc(C(F)(F)F)ccc4c3=O)cn12 [Final Cpd X79]	> 20000	865			
CCc1ccc2c(=O)n(CC(=O)Nc3ccncn3)nc(CC)c2c1 [Final Cpd 7]	> 10000				700
CC(C)c1nn(CC(=O)N[C@H]2C[C@@](C)(O)C2)c(=O)c2ccc(C#N)cc12 [X-1060]	> 20000	1740			
